Experimental data as given in PubChem BioAssay (NCI).
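Step 1: Grow cells in 96-well plates. Step 2: Expose to compound for 48 hours at 5 concentrations. Step 3: Interpolate endpoints linearly; if unreached, use highest concentration. Abbreviation: GI50, concentration required for 50% inhibition of growth. The concentration for full growth arrest is given as TGI.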

Columns and labels:
Experiment in all cases: DTP human tumour cell line panel, 48 h
[1] = test system: CCRF-CEM leukemia
[2] = test system: MALME-3M melanoma
[3] = test system: NCI-H460 lung
[4] = test system: SF-268 CNS
[5] = test system: SK-MEL-28 melanoma
[6] = test system: HT29 colon
[7] = test system: SW-620 colon
[8] = test system: U251 CNS
[9] = test system: NCI-H522 lung
[10] = test system: UACC-62 melanoma

O=C1CCCC/C1=C/C=C/c1ccccc1
TGI [1]: > 100 µM | TGI [2]: > 100 µM | TGI [3]: > 100 µM | TGI [4]: > 100 µM | TGI [5]: > 100 µM | TGI [6]: > 100 µM | TGI [7]: > 100 µM | TGI [8]: > 100 µM | TGI [9]: 61.2 µM | TGI [10]: > 100 µM

O=c1[nH]c(Br)nc2c(Br)c[nH]c12
TGI [1]: > 100 µM | TGI [2]: > 100 µM | TGI [3]: > 100 µM | TGI [4]: > 100 µM | TGI [5]: > 100 µM | TGI [6]: > 100 µM | TGI [7]: > 100 µM | TGI [8]: > 100 µM | TGI [9]: > 100 µM | TGI [10]: > 100 µM

COc1ccc2c3c1C(=O)CCC3CO2 (centres undefined)
TGI [1]: > 100 µM | TGI [2]: > 100 µM | TGI [3]: > 100 µM | TGI [4]: > 100 µM | TGI [5]: > 100 µM | TGI [6]: > 100 µM | TGI [7]: > 100 µM | TGI [8]: > 100 µM | TGI [9]: > 100 µM | TGI [10]: > 100 µM

O=C1C=C(Nc2ccccc2C(=O)CC(=O)C(=O)Nc2cccc(C(F)(F)F)c2)c2ccccc2C1=O
TGI [1]: 44.7 µM | TGI [2]: 28.7 µM | TGI [3]: > 100 µM | TGI [4]: 73.3 µM | TGI [5]: 54.8 µM | TGI [6]: > 100 µM | TGI [7]: 48.6 µM | TGI [8]: 96.5 µM | TGI [9]: 79.2 µM | TGI [10]: 32.3 µM

COc1ccc(O)c(C(=O)c2ccc(C(=O)O[C@@H]3CCCNC[C@H]3NC(=O)c3ccncc3)cc2)c1F
GI50 [1]: 0.313 µM | TGI [1]: > 6.03 µM | GI50 [2]: 1.57 µM | TGI [2]: > 25 µM | GI50 [3]: 0.869 µM | TGI [3]: > 25 µM | GI50 [4]: 0.753 µM | TGI [4]: > 25 µM | GI50 [5]: 2.73 µM | TGI [5]: > 25 µM | GI50 [6]: 0.944 µM | TGI [6]: > 25 µM | TGI [7]: > 25 µM | GI50 [8]: 1.17 µM | TGI [8]: > 22.7 µM | GI50 [9]: 1.74 µM | TGI [9]: > 13 µM | GI50 [10]: 1.51 µM | TGI [10]: > 25 µM

COc1cc(OC)c2c(=O)c(O)c(-c3ccc(OC)c(OC)c3)oc2c1
TGI [1]: > 100 µM | TGI [2]: > 31.6 µM | TGI [3]: > 100 µM | TGI [4]: > 31.6 µM | TGI [5]: > 31.6 µM | TGI [6]: > 100 µM | TGI [7]: > 100 µM | TGI [8]: > 100 µM | TGI [9]: > 31.6 µM | TGI [10]: > 31.6 µM

CC1=CC(C)(C)N=C2SC(c3ccc(Cl)cc3)=NN12
TGI [1]: > 100 µM | TGI [2]: 75.6 µM | TGI [3]: > 100 µM | TGI [4]: > 100 µM | TGI [5]: > 100 µM | TGI [6]: 38.7 µM | TGI [7]: > 100 µM | TGI [8]: 90.9 µM | TGI [9]: 46.4 µM | TGI [10]: > 100 µM

CO[C@@H]1[C@@H](OC2OC(C)C(OC3CC(C)(O)C(OC(=O)CC(C)C)C(C)O3)C(N(C)C)C2O)[C@@H](CC=O)C[C@@H](C)C(=O)/C=C/C2O[C@H]2C[C@@H](C)OC(=O)C[C@H]1OC(C)=O (some centres undefined)
TGI [1]: 34.3 µM | TGI [2]: 27.9 µM | TGI [3]: 41.8 µM | TGI [4]: > 100 µM | TGI [5]: 34.8 µM | TGI [6]: 26.4 µM | TGI [7]: 35.8 µM | TGI [8]: 35.7 µM | TGI [9]: 36 µM | TGI [10]: 60.1 µM

O=C(Nc1ccc(Br)cc1)Nc1n[nH]c2ccccc12
GI50 [1]: 6.8 µM | TGI [1]: > 100 µM | GI50 [2]: > 19.7 µM | TGI [2]: > 100 µM | GI50 [3]: 11.7 µM | TGI [3]: > 100 µM | GI50 [4]: > 46 µM | TGI [4]: > 100 µM | GI50 [5]: > 100 µM | TGI [5]: > 100 µM | GI50 [6]: > 100 µM | TGI [6]: > 100 µM | GI50 [7]: > 100 µM | TGI [7]: > 100 µM | GI50 [8]: > 91.2 µM | TGI [8]: > 100 µM | GI50 [9]: 55 µM | TGI [9]: > 100 µM | GI50 [10]: > 100 µM | TGI [10]: > 100 µM

CN(C)CCn1c2ccccc2c2nc3cc4ccccc4cc3nc21
TGI [1]: 14.7 µM | TGI [2]: 25.2 µM | TGI [3]: 2.48 µM | TGI [4]: 6.26 µM | TGI [5]: 21.9 µM | TGI [6]: 15 µM | TGI [7]: 17.4 µM | TGI [8]: 19.5 µM | TGI [9]: 21.7 µM | TGI [10]: 21.1 µM

CCCCCCCCCCCCCCCC(=O)OCC(O)C1OC(=O)C(O)=C1O (centres undefined)
TGI [1]: 47.5 µM | TGI [2]: > 100 µM | TGI [3]: > 100 µM | TGI [4]: 60.4 µM | TGI [5]: 41.4 µM | TGI [6]: 38.8 µM | TGI [7]: > 100 µM | TGI [8]: 61.7 µM | TGI [9]: > 100 µM | TGI [10]: 75 µM

COc1cc(CSc2nc3ccc(C)cc3c(=O)n2Cc2ccccc2)cc(OC)c1OC
GI50 [1]: 2.37 µM | TGI [1]: > 100 µM | GI50 [2]: 3.09 µM | TGI [2]: 34.3 µM | GI50 [3]: 2.26 µM | TGI [3]: > 100 µM | GI50 [4]: 5.01 µM | TGI [4]: > 100 µM | GI50 [5]: 2.99 µM | TGI [5]: 96.8 µM | GI50 [6]: 0.595 µM | TGI [6]: 80.8 µM | GI50 [7]: 1.56 µM | TGI [7]: > 100 µM | GI50 [8]: 3.2 µM | TGI [8]: 20.8 µM | GI50 [9]: 0.327 µM | TGI [9]: 2.53 µM | GI50 [10]: 2.03 µM | TGI [10]: 35.7 µM

C=C1CC(CCCl)(c2ccccc2)OC1=O (centres undefined)
TGI [1]: 49.2 µM | TGI [2]: 56.8 µM | TGI [3]: > 100 µM | TGI [4]: > 90.5 µM | TGI [5]: 22.2 µM | TGI [6]: > 72.1 µM | TGI [7]: 39.5 µM | TGI [8]: > 100 µM | TGI [9]: 33.2 µM | TGI [10]: > 100 µM

CN1C(=O)CNC(=O)[C@H](NC(=O)c2nc3ccccc3cc2O)CSSC[C@H]1C(=O)NCCc1nc2ccccc2cc1O
GI50 [1]: 3.25 µM | TGI [1]: > 52.7 µM | GI50 [2]: 15.8 µM | TGI [2]: 44.1 µM | GI50 [3]: 1.15 µM | TGI [3]: > 35.2 µM | GI50 [4]: 4.19 µM | TGI [4]: 37.9 µM | GI50 [5]: 8.07 µM | TGI [5]: 35 µM | GI50 [6]: 3.12 µM | TGI [6]: 16.4 µM | GI50 [7]: 5.65 µM | TGI [7]: 35.3 µM | GI50 [8]: 16.5 µM | TGI [8]: 43 µM | GI50 [9]: 2.38 µM | TGI [9]: 7.46 µM | GI50 [10]: 7.64 µM | TGI [10]: 38.6 µM

CC(=O)O[C@@H]1CO[C@H]2O[C@H]3[C@@H](C(C=O)=C[C@H](O)[C@@H]4C5=C(C(C)C)CC[C@]5(C)CC[C@@]34C)[C@@]2(O)C1=O
TGI [1]: 0.418 µM | TGI [2]: 0.347 µM | TGI [3]: 0.699 µM | TGI [4]: 0.667 µM | TGI [5]: 0.771 µM | TGI [6]: 0.471 µM | TGI [7]: 0.213 µM | TGI [8]: 0.55 µM | TGI [9]: 0.24 µM | TGI [10]: 1.06 µM

O=C(OCCOCBr)c1ccccc1
TGI [1]: > 100 µM | TGI [2]: > 100 µM | TGI [3]: > 100 µM | TGI [4]: > 100 µM | TGI [5]: > 100 µM | TGI [6]: > 100 µM | TGI [7]: > 100 µM | TGI [8]: > 100 µM | TGI [9]: > 100 µM | TGI [10]: > 100 µM

CC(=O)OC1COC(S[As](C)C)C(OC(C)=O)C1OC(C)=O (centres undefined)
GI50 [1]: 0.0444 µM | TGI [1]: 0.152 µM | GI50 [2]: 0.0159 µM | TGI [2]: 0.287 µM | GI50 [3]: 1.05 µM | TGI [3]: 14.5 µM | GI50 [4]: 1.23 µM | TGI [4]: 11.6 µM | GI50 [5]: 0.666 µM | TGI [5]: 8.89 µM | GI50 [6]: 0.558 µM | TGI [6]: > 100 µM | GI50 [7]: 0.341 µM | TGI [7]: 1.69 µM | GI50 [8]: 0.639 µM | TGI [8]: 5.24 µM | GI50 [9]: 0.0321 µM | TGI [9]: 0.139 µM | GI50 [10]: 0.285 µM | TGI [10]: 1.61 µM
